Source: US20040048866A1 (priority 2002, published 2004)

What was measured:
[1] = molecular target: T1, α1 and β1 subunits of guanylate cyclase (sGC), expressed in Sf9 cells (Homo sapiens, UniProt Q02108+Q02153); assay: Guanylate Cyclase Assay (formation of cyclic GMP from GTP); type: biochemical; settings: for Mean activation at 100 μM: (activity at 100 μM with 1 μM SNP − activity at 100 μM)/(activity of SNP at 1 μM − basal activity of sGC); for Mean efficacy at 100 μM with 1 μM of SNP, [% of YC-1]: compound at 100 μM with 1 μM sodium nitroprusside (SNP), normalized to 100 μM YC-1 (without SNP) as 100%; for Emax at 100 µM: compound at 100 μM without SNP, normalized to activity of 100 μM YC-1 (without SNP) as 100%, read-out: Mean basal efficacy at 100 μM, [% of YC-1]
T1 construct: made in house; host or cells: Sf9 insect cells (baculovirus co-infection); high-speed supernatant used unpurified
T1 sequence (Q02108 1-690): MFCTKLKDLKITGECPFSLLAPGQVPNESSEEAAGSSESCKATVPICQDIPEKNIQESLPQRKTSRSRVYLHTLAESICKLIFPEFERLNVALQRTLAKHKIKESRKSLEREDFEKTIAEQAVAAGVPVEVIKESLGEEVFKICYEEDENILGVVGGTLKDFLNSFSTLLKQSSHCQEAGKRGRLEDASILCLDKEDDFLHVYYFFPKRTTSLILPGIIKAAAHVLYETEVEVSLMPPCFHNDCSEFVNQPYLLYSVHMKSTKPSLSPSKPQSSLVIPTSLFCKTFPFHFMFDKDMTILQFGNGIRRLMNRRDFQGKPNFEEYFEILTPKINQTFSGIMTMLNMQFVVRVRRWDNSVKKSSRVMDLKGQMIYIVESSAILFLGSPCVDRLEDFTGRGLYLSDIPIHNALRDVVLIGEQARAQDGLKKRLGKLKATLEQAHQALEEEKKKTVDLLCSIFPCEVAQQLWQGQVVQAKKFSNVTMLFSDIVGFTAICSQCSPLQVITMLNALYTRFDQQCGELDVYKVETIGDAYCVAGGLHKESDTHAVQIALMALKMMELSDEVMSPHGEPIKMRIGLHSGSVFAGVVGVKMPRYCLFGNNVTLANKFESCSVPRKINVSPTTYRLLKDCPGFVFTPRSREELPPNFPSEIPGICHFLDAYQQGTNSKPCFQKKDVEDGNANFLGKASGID
T1 sequence (Q02153 1-619): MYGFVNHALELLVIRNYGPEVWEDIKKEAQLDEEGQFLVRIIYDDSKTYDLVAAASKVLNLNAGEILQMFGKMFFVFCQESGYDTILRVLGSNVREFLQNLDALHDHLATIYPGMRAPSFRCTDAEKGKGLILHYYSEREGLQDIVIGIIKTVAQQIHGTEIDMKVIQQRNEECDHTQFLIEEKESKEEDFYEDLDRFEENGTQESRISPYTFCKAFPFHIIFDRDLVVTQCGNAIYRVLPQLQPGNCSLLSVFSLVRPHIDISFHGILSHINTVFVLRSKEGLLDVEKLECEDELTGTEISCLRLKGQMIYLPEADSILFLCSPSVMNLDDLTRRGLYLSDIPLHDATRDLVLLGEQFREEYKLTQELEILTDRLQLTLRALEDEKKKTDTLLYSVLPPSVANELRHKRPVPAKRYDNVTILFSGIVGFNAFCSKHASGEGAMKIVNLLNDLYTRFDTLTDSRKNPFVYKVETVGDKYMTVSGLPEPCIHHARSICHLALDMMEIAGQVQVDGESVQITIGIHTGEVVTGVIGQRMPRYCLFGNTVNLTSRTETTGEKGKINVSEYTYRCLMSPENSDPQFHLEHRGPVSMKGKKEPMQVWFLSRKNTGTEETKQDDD
Experimental: Sf9 cells were cultured in Sf-90011 medium supplemented with 10% (v/v) fetal calf serum at 28° C. to give a count of 6×10^5 cells/ml. The cells were then infected with a mixture of the virus stocks for the α1 and β1 subunits of guanylate cyclase at a multiplicity of infection of 0.1 pfu/cell. The cells were harvested 72 hours after infection and were pelleted by centrifugation. The resulting cell pellets were homogenized with Polytron homogenizer in 3 volumes of 20 mM Tris-HCl (pH 7.6) containing 1 mM EDTA, 5 mM dithiothreitol, 90 mM NaCl, 10% glycerol, and protease inhibitors mix (Roche Molecular Biochemicals). The homogenate was centrifuged at 50,000×g for 60 minutes and the supernatant was aliquotted and stored at −80° C.
Compounds of the present invention were dissolved in DMSO to make 100 mM and saved as stocks at −20° C. When compounds were tested, 10-fold concentrated solutions with 10% DMSO were prepared. 10 μl of 10-fold concentrated compound solutions were added to the reaction mixture total of 100 μl.
Guanylate cyclase activity was measured by the formation of cyclic GMP from GTP in a total volume of 100 μl. Guanylate cyclase-expressed Sf9 cell high-speed supernatant (Sf9 high-speed sup) was used as an enzyme source for the assay. The reaction mixture containing 0.1 μl enzyme of Sf9 high-speed sup, compound solution, 50 mM Tris-HCl (pH 7.6), 4 mM MgCl2, 0.5 mM IBMX, 15 mM creatine phosphate, 20 μg creatine phosphokinase, 0.1% BSA and 1 mM GTP were incubated at 37° C. for 15 minutes. After the reaction, 0.9 ml of 50 mM sodium acetate buffer (pH 5.8) was added followed by boiling for 3 minutes to stop the reaction. The solution was centrifuged at 3000 rpm for 15 minutes at room temperature and cyclic GMP in 20 μl of the resulting supernatant was measured according to the protocol of Amersham cyclic GMP enzymeimmunoassay system (Amersham, RPN 226).
Compounds of the present invention were tested at 100 μM with and without 1 μM of sodium nitroprusside (SNP). YC-1 was included as a standard for each assay. The data was normalized with the activity of 100 μM YC-1 (without SNP) as 100%. Mean basal efficacy, in Table 1, was expressed as a percentage of 100 μM YC-1 (without SNP).
The mean activation, in Table 1, was calculated based on the formula: (activity of compound of the present invention at 100 μM with 1 μM SNP)−(activity of compound of on at 100 μM)/(activity of SNP at 1 μM)−(basal activity of sGC).

Structure (SMILES)	Mean activation at 100 μM [1]	Mean efficacy at 100 μM with 1 μM of SNP, [% of YC-1] [1]	Emax at 100 µM [1] [%]	melting point [°C]
O=C(O)c1ccc(Oc2nn(Cc3ccccc3)c3ccccc23)o1 [Example 4, 5-[(1-benzyl-1H-indazol-3-yl)oxy]-2-furoic acid]	1.5	26 % of YC-1	0	162 to 165
Clc1ccc(NN=Cc2ccc(Oc3nn(Cc4ccccc4)c4ccccc34)o2)nn1 [Example 3, 5-[(1-benzyl-1H-indazol-3-yl)oxy]-2-furaldehyde (6-chloro-3-pyridazinyl)hydrazone]	1.7	17 % of YC-1	0	200 to 202
NC(=O)c1cccnc1Oc1nn(Cc2ccccc2)c2ccccc12 [Example 14, 2-[(1-benzyl-1H-indazol-3-yl)oxy]nicotinamide]	1.8	23 % of YC-1	0	
OCc1cccc(Oc2nn(Cc3ccccc3)c3ccccc23)n1 [Example 2, {6-[(1-benzyl-1H-indazol-3-yl)oxy]-2-pyridinyl}methanol]	1.8	20 % of YC-1	0	156 to 158
c1ccc(Cn2nc(Oc3ncccn3)c3ccccc32)cc1 [Example 12, 1-benzyl-3-(2-pyrimidinyloxy)-1H-indazole]	2.6	43 % of YC-1	-1	

The remaining lines, values ahead:

Mean activation at 100 μM [1]	Mean efficacy at 100 μM with 1 μM of SNP, [% of YC-1] [1]	Emax at 100 µM [1] [%]	melting point [°C]	Structure (SMILES)
1.0	7 % of YC-1	4	111 to 113	O=[N+]([O-])c1ccc(Oc2nn(Cc3ccccc3F)c3ncccc23)nc1 [Example 34, 1-(2-fluorobenzyl)-3-[(5-nitro-2-pyridinyl)oxy]-1H-pyrazolo[3,4-b]pyridine]
1.9	28.1 % of YC-1	7.1	115 to 117	O=[N+]([O-])c1cccnc1Oc1nn(Cc2ccccc2F)c2ncccc12 [Example 35, 1-(2-fluorobenzyl)-3-[(3-nitro-2-pyridinyl)oxy]-1H-pyrazolo[3,4-b]pyridine]
2.2	15 % of YC-1	3		CN1CCCC1CCNC(=O)c1ccccc1Oc1nn(Cc2ccccc2)c2ccccc12 (stereo not drawn) [Example 23, 2-[(1-benzyl-1H-indazol-3-yl)oxy]-N-[2-(1-methyl-2-pyrrolidinyl)ethyl]benzamide]
1.9	15 % of YC-1	5		CCCC(CO)NC(=O)c1ccccc1Oc1nn(Cc2ccccc2)c2ccccc12 (stereo not drawn) [Example 21, 2-[(1-benzyl-1H-indazol-3-yl)oxy]-N-[1-(hydroxymethyl)butyl]benzamide]
2.0	12 % of YC-1	1		O=C(NCC1CCCCC1O)c1ccccc1Oc1nn(Cc2ccccc2)c2ccccc12 (stereo not drawn) [Example 26, 2-[(1-benzyl-1H-indazol-3-yl)oxy]-N-[(2-hydroxycyclohexyl)methyl]benzamide]
1.4	11 % of YC-1	1	80 to 82	OCc1ccc(Cn2nc(OCc3ccccc3)c3ccccc32)o1 [Example 29, (5-{[3-(benzyloxy)-1H-indazol-1-yl]methyl}-2-furyl)methanol]
